Patent US8697724B2, “Crystalline oxalate salts of a diamide compound” (Theravance, Inc., priority 2010, dated 2014)
Where a name gives a salt, the structure may show the parent alone.

Legend:
[1] = Differential scanning calorimetry (thermal stability); type: physicochemical; conditions: DSC traces, 10° C./min
Method: Differential scanning calorimetry (DSC) was performed using a TA Instruments Model Q-100 module with a Thermal Analyst controller. Data were collected and analyzed using TA Instruments Thermal Solutions software. A sample of about 2 mg was accurately weighed into an aluminum pan with lid. The sample was evaluated using a linear heating ramp of 10° C./min from ambient temperature to approximately 300° C. The DSC cell was purged with dry nitrogen during use. Representative DSC traces for Form 1 and Form 2 are shown in FIG. 2 and FIG. 5, respectively.

[2] = Dynamic moisture sorption (DMS) assessment; type: physicochemical
Method: A dynamic moisture sorption (DMS) assessment (also known as a moisture sorption-desorption profile) was performed for a sample of Form 2 using a VTI atmospheric microbalance, SGA-100 system (VTI Corp., Hialeah, Fla. 33016). A sample size of approximately 10 mg was used and the humidity was set at the ambient value at the start of the analysis. A typical DMS analysis consisted of three scans: ambient to 5% relative humidity (RH), 5% RH to 90% RH, 90% RH to 5% RH at a scan rate of 5% RH/step. The mass was measured every two minutes and the RH was changed to the next value (+/−5% RH) when the mass of the sample was stable to within 0.01% for 5 consecutive points.

[3] = test system: methacholine (MCh)-induced bronchoconstriction; test: Einthoven assay: bronchoprotection against methacholine-induced bronchoconstriction; type: in vivo, rat; conditions: male Sprague-Dawley rats, inhalation, 100 μg, at 24 h
Method: This assay measures the ability of a test compound to provide bronchoprotection against methacholine (MCh)-induced bronchoconstriction in a rat.
Male Sprague-Dawley rats (Harlan, Indianapolis, Ind.), weighing between 200 g and 350 g, were used for all studies.
Test compound or vehicle (sterile deionized water) were dosed by inhalation (IH) over a 10 min period in a pie shaped inhalation chamber (R+S Molds, San Carlos, Calif.) using 5 mL of dosing solution. Rats were exposed to an aerosol, which was generated from an LC Star Nebulizer Set Model 22F51 (PARI Respiratory Equipment, Inc. Midlothian, Va.) driven by Bioblend (5% CO2/95% atmospheric air) at a pressure of 22 psi. Rats were dosed with 100 μg of test compound unless otherwise indicated.
At predetermined time points, rats were anesthetized with an intraperitoneal (IP) injection of 120 mg/kg inactin (thiobutabarbital). A supplemental dose (40 mg/kg, IP) was administered if the animal responded to physical stimuli (e.g. toe pinch). The surgical site was shaved and a 1-2 cm midline incision of the ventral aspect of the neck was made. […]
Changes in VP were recorded using the Acknowledge Data Collection Software (Santa Barbara, Calif.). […] Changes in ventilation pressure (cm H2O) in treated animals are expressed as % inhibition of MCh response relative to control animals.

[4] = reversible moisture sorption/desorption profile

Structure (SMILES): CN(CCCCC(=O)Nc1ccc(CNC[C@H](O)c2ccc(O)c3[nH]c(=O)ccc23)cc1)C(=O)CCN1CCC(OC(=O)Nc2ccccc2-c2ccccc2)CC1 [Form 1, Biphenyl-2-ylcarbamic Acid 1-(2-{[4-(4-{[(R)-2-Hydroxy-2-(8-hydroxy-2-oxo-1,2-dihydroquinolin-5-yl)ethylamino]methyl}-phenylcarbamoyl)butyl]methylcarbamoyl}ethyl)piperidin-4-yl Ester Oxalate Isopropanol Solvate Salt (Form 1)]
- thermal stability [1]: excellent thermal stability

Structure (SMILES): CN(CCCCC(=O)Nc1ccc(CNC[C@H](O)c2ccc(O)c3[nH]c(=O)ccc23)cc1)C(=O)CCN1CCC(OC(=O)Nc2ccccc2-c2ccccc2)CC1 [Form 2, Biphenyl-2-ylcarbamic Acid 1-(2-{[4-(4-{[(R)-2-Hydroxy-2-(8-hydroxy-2-oxo-1,2-dihydroquinolin-5-yl)ethylamino]methyl}-phenylcarbamoyl)butyl]methylcarbamoyl}ethyl)piperidin-4-yl Ester Oxalate Hydrate Salt (Form 2)]
- change in physical form during moisture sorption and desorption (PXRD before and after DMS) ([2]; PXRD profiles before and after the DMS experiment): no change in physical form occurred
- weight gain (moisture sorption) ([2]; humidity range of 5% RH to 90% RH): about 1.6 weight %
- deliquescence [2, 4]: not deliquescent
- hygroscopicity [2, 4]: acceptable hygroscopicity

Structure (SMILES): CN(CCCCC(=O)Nc1ccc(CNC[C@H](O)c2ccc(O)c3[nH]c(=O)ccc23)cc1)C(=O)CCN1CCC(OC(=O)Nc2ccccc2-c2ccccc2)CC1 [Biphenyl-2-ylcarbamic Acid 1-(2-{[4-(4-{[(R)-2-hydroxy-2-(8-hydroxy-2-oxo-1,2-dihydroquinolin-5-yl)ethylamino]methyl}phenylcarbamoyl)-butyl]methylcarbamoyl}ethyl)piperidin-4-yl Ester Ditrifluoroacetic Acid Salt]
- % inhibition of MCh response [3]: at least 40%
